Test results reported in US11246813B2, “Composition for preventing hair loss or promoting hair development, comprising irone as active ingredient” (INDUSTRY-ACADEMIC COOPERATION FOUNDATION, YONSEI UNIVERSITY, priority 2017, dated 2022).

Key:
Format in all cases: cell-based
[1] = system: human hair dermal papilla cells; test: MTT assay, cell viability and proliferation in human hair dermal papilla cells
Procedure: Human hair dermal papilla cells were purchased from PromoCell GmbH (Heidelberg, Germany). The human hair dermal papilla cells were cultured in an incubator at 37° C., 5% CO2 using HFDPC medium (PromoCell, Germany) with fetal bovine serum (FBS) and Dulbecco's modified Eagle's medium (DMEM; Gibco BRL, Gaithersburg, Md., USA). Due to the nature of the cells, cells at passages 2 to 5 were used for all experiments. The human hair dermal papilla cells were dispensed into 24-well plates to 1×10^5 cells/well, and then cultured for 24 hours in an incubator at 37° C., 5% CO2 so that the cells are stabilized. Treatment with samples at respective concentrations (0, 10, 20, 50, 100, 200, 400 μg/ml) was performed and culture was performed for 24 hours. Then, treatment with 100 ul of 3-(4,5-dimethylthiazol-2-yl)-2,5-diphenyltetrazolium bromide (MTT; Sigma Aldrich, St. Louis, USA) reagent at a concentration of […] was performed and culture was performed again for 4 hours. After removing the medium, the precipitate (formazan) was dissolved in DMSO and the absorbance was measured at a wavelength of 540 nm. A proliferation rate thereof was evaluated based on the absorbance of a control group containing only DMSO.

VEGF [2] = test: VEGF ELISA of culture solution of human hair dermal papilla cells; details: 20 μM, 24 hours, vs DMSO
Procedure: (§1) Human hair dermal papilla cells were purchased from PromoCell GmbH (Heidelberg, Germany). The human hair dermal papilla cells were cultured in an incubator at 37° C., 5% CO2 using HFDPC medium (PromoCell, Germany) with fetal bovine serum (FBS) and Dulbecco's modified Eagle's medium (DMEM; Gibco BRL, Gaithersburg, Md., USA). Due to the nature of the cells, cells at passages 2 to 5 were used for all experiments. The human hair dermal papilla cells were dispensed into 12-well plates to 3×10^4 cells/well, and then the culture solutions were treated with alpha-irone at 20 μM. DMSO was used as a negative control group. The alpha-irone-treated culture solutions were collected after 24 hours, and experiments were conducted using human VEGF ELISA Kit (Enzo Life Sciences, NY, USA), human IGF-1 ELISA kit (Enzo Life Sciences, NY, USA), and cAMP complete ELISA kit (Enzo Life Sciences, NY, USA), respectively, according to the manufacturers' protocol.

IGF-1 = IGF-1 ELISA of culture solution of human hair dermal papilla cells; details: 20 μM, 24 hours, vs DMSO
Procedure: as §1

cAMP = cAMP ELISA in human hair dermal papilla cells; details: 20 μM, 24 hours, vs DMSO
Procedure: as §1

PKA Cα = test: Western blot of PKA Cα in human hair dermal papilla cells; details: 20 μM
Procedure: (§2) The […] of human hair dermal papilla cells, obtained by performing treatment with alpha-irone at 20 μM and performing culture, was homogenized with a lysis buffer, and then centrifuged at 13,000×g for 20 minutes at 4° C. Protein quantification was performed by Bradford assay. 40 μg of the protein was electrophoresed on 10% SDS polyacrylamide gel and then transferred to nitrocellulose membranes. The protein was allowed to react with each of PKA Cα, β-catenin, β-actin, and GAPDH antibody (Cell Signaling Technology, Danvers, Mass., USA). Each protein's signal was visualized with a chemiluminescent detection system (Amersham), and then the band's thickness was quantified using the Quantity One Analysis Software (Bio-Rad Laboratories).

β-catenin = test: Western blot of β-catenin in human hair dermal papilla cells; details: 20 μM
Procedure: as §2

LEF = test: RT-PCR of LEF mRNA in human hair dermal papilla cells; details: 20 μM, 24 hours
Procedure: (§3) In the present invention, in order to identify activity of alpha-irone on human hair dermal papilla cells (DPCs), when the DPCs reached 70% to 80% confluency, treatment with alpha-irone at 20 μM was performed, and then culture was performed under a condition of 5% CO2 and 37° C. 24 hours after the treatment, the cells were collected and total RNA was extracted with Trizol Reagent (Gibco BRL, USA). The total RNA was quantified by absorbance measurement at 260 nm.
(§4) After isolation of RNA, cDNA was synthesized by performing reverse transcription using oligo dT primers and SuperScript reverse transcriptase (GIBCOBRL, Gaithersburg, Md., USA). PCR was performed using, as a template, cDNA obtained through reverse transcription and using, as primers, 5′ and 3′ flanking sequences of the gene's cDNA to be amplified. Here, required primers were obtained by making a request for synthesis with a company specializing in primer manufacturing (BIONEER CORPORATION, Korea) and used. To a mixture obtained by mixing of 5 μl of 10× reaction buffer [100 mM KCL, 20 mM Tris-HCl (pH 8.0), 2.5 mM MgCl2], 4 μl of 10 mM dNTP, and 1 μl each of 0.2 μM sense and antisense primers, were added 2 μl of the completed cDNA reaction mixture and 2.5 unit of Taq polymerase (Takara, Japan). Then, the volume was adjusted with 50 μl of distilled water, and PCR was performed using a PCR instrument. […]

Cyc-D = test: RT-PCR of Cyc-D mRNA in human hair dermal papilla cells; details: 20 μM, 24 hours
Procedure: as §3, §4

VEGF [3] = test: RT-PCR of VEGF mRNA in human hair dermal papilla cells; details: 20 μM, 24 hours
Procedure: as §3, §4

IGF = test: RT-PCR of IGF-1 mRNA in human hair dermal papilla cells; details: 20 μM, 24 hours
Procedure: as §3, §4

SMILES: CC(=O)/C=C/C1C(C)=CCC(C)C1(C)C (stereo not drawn) [alpha-irone, (E)-4-(2,5,6,6-tetramethylcyclohex-2-en-1-yl)but-3-en-2-one]
- cell viability (MTT assay) ([1]; 24 hours culture, up to a concentration of 400 μg/ml, vs DMSO control): did not affect the cell viability
- increase of proliferation rate ([1]; alpha-irone 10 μM): 10.6%
- increase of proliferation rate ([1]; alpha-irone 20 μM): 37%
- increase of proliferation rate ([1]; alpha-irone 50 μM): 28%
- increase in concentration of VEGF (VEGF [2]): 27%
- increase in concentration of IGF-1 (IGF-1): 18%
- increase in cAMP concentration (cAMP): 51%
- increase in expression of PKA Cα protein (PKA Cα): 52%
- increase in expression of β-catenin protein in the cell nucleus (β-catenin): 38%
- increase in mRNA expression of LEF (LEF): 348%
- increase in mRNA expression of Cyc-D (Cyc-D): 250%
- increase in mRNA expression of VEGF (VEGF [3]): 247%
- increase in mRNA expression of IGF (IGF): 217%
